Reference: patent publication US8703698B2, “Compositions and methods for treating atherosclerosis” (The University of Chicago, priority 2003, dated 2014)

Experiments:
THP-1 cells = assay: Cholesterol efflux from cholesterol-laden human THP-1 cells; format: cell-based; conditions: liposomal formulations; cholesterol-laden THP-1 cells differentiated with phorbol myristate acetate
Protocol: These monocytes were differentiated into macrophages with phorbol myristate acetate (100 nM). In these experiments, cholesterol-laden human THP-1 cells were exposed to liposomal formulations comprising a peptide corresponding to amino acids 1-20 of murine SAA2.1 (SEQ ID NO:1), a peptide corresponding to amino acids 74-103 of murine SAA2.1 (SEQ ID NO:4), a peptide corresponding to amino acids 1-20 of murine SAA1.1 plus an arginine at the N-terminus (SEQ ID NO:7), or a peptide corresponding to amino acids 1-20 of murine SAA2.1 (SEQ ID NO:1) and a peptide corresponding to amino acids 74-103 (SEQ ID NO:4) of murine SAA2.1. Results from these experiments are depicted in FIG. 4. […] Studies were carried out to determine whether murine SAA2.1 increases cholesterol export from a human derived monocytic cell line, THP-1 (obtained from American Type Culture Collection, Manassas, Va.; ATCC#TIB-202). Human monocytes were cultured in T-75 flasks with 30 ml RPMI 1640 medium containing 2 mM L-glutamine, 4.5 g/L glucose, 10 mM HEPES, 1.0 mM […] and supplemented with 0.05 mM 2-mercaptoethanol and 10% fetal bovine serum. Subsequently, five million cells were placed in each well of a 6-well tissue culture plate. The monocytes were differentiated into macrophages by treatment with phorbol myristate acetate (100 nM). THP-1 macrophages were enriched with cholesterol by incubating with red blood cells membrane fragments (175 μg as cholesterol) that had been previously labelled with 0.5 μCi/mL[^3H]-cholesterol at 37° C. for 6 hours in 0.2% bovine serum albumin, followed by an overnight equilibration period. Cells were washed four times with PBS/BSA prior to efflux studies. Cells were then incubated at 37° C. with 2 mL RPMI-BSA containing 5% LPDS and 50 μg/mL of either native HDL, SAA-HDL, liposomes containing 2 μmoles of apoA-I, SAA1.1 or 2.1, or liposomes containing 0.5 μmoles synthetic peptides corresponding to amino acid residues 1-20 (SEQ ID NO:1), 21-50 (SEQ ID NO:2), 51-80 (SEQ ID NO:3) or 74-103 (SEQ ID NO:4) of murine SAA2.1. The efflux media were collected at 0, 1, 2, 4, 8, 16 and 24 hours, centrifuged to remove cell debris, and then used to measure the exported counts. […] A portion of the cells was lysed in 0.1N NaOH to estimate both the remaining radioactivity and the cellular protein content. Cellular lipids were extracted from the remaining portion of the cells and analyzed by thin-layer chromatography as described by Mendez et al. (J. Clin. Invest. 1994 94:1698-1705) and Oram et al. (Arterioscler. Thromb. 1991 11:403-414). The radioactivity in appropriate spots was measured to determine total cellular cholesterol counts. Efflux of radioactive label to the medium was calculated as the percentage of total counts (cell+medium counts) in each well.

ApoE knockout mice = assay: Prevention of aortic lesions in ApoE knockout mice on high fat diet; format: in vivo; conditions: liposomes intravenously once every four days, five doses at 6 mg/kg; 20 days high fat diet
From the text: In prevention experiments, ApoE knockout mice were placed on a high fat diet and at the same time received once every four days liposomes containing a peptide corresponding to amino acids 1-20 of murine SAA2.1 (SEQ ID NO:1; Group 2 of FIG. 8A and Group hf+p1 of FIG. 8B), liposomes containing a peptide corresponding to amino acids 74-103 of murine SAA2.1 (SEQ ID NO:4; Group 4 of FIG. 8A and Group hf+p4 of FIG. 8B) or liposomes containing a peptide corresponding to amino acids 1-20 of murine SAA2.1 and a peptide corresponding to amino acids 74-103 of murine SAA2.1 (SEQ ID NO:1+SEQ ID NO:4; Group 5 of FIG. 8A and Group hf+p(1+4) of FIG. 8B). The control group received high fat diet alone with no liposomes (Group 1 of FIG. 8A and Group high fat of FIG. 8B). An additional group was placed on a normal mouse chow diet (Group 3 of FIG. 8A and Group low fat of FIG. 8B). […]
To assess the effects of the peptides on aortic atherosclerosis, at the termination of the experiment, the aorta was removed from the animals and opened longitudinally. The endothelial surface was stained with Oil Red O and the area occupied by lipid was measured by image analysis. Furthermore, histological sections of aorta were prepared for microscopic analysis and total lipids were isolated to measure the quantity of cholesterol per weight of tissue. […]

Sequence | cholesterol efflux, time course (FIG. 4) (THP-1 cells) | aortic lesions, area stained with Oil Red O, versus control animals (FIGS. 8A and 8B) (ApoE knockout mice)
DTIADQEANRHGRSGKDPNYYRPPGLPDKY [SEQ ID NO:4, synthetic peptide, residues 74-103 of murine SAA2.1] | demonstrated to increase cholesterol efflux | showed decreased aortic lesions
GFFSFVHEAFQGAGDMWRAY [SEQ ID NO:1, synthetic peptide, residues 1-20 of murine SAA2.1] | demonstrated to increase cholesterol efflux | showed decreased aortic lesions
